Reference: patent US10064839B2, “Methods of treating liver diseases” (Zafgen, Inc., priority 2012, dated 2018)
Values after ≈ are worked out from the molar mass of the structure shown.

Tests used:
[1] = tested on: Diet induced obese (DIO) C57BL6 mice; test: Diet induced obese mouse study of compound A; assay type: in vivo
Method: Diet induced obese (DIO) C57BL6 mice were provided with varying doses of compound A and fumagillin (fum). Tissue biomarkers in peri-renal fat, mesenteric fat and the liver were measured.
(FIG. 3). Decrease in plasma insulin in mice, after once or twice a day administration of compound A vs. vehicle is also observed (FIG. 4).

[2] = Plasma protein binding, mouse; assay type: in vitro ADME; conditions: read-out: Plasma protein binding (h/r/m, %): m
Solubility = assay type: physicochemical; conditions: aqueous buffer; at pH 7.4
recombinant human MetAP2 = target: T1, recombinant human MetAP2 (Homo sapiens, UniProt P50579); test: Recombinant human MetAP2 inhibition assay (MAS substrate, Amplex red fluorescence); assay type: biochemical; conditions: first value of the cell; read-out: MetAP2/MetAP1 IC50 (nM): MetAP2
T1 construct: made in house; host or cells: Sf9 insect cells
T1 sequence (P50579 whole entry): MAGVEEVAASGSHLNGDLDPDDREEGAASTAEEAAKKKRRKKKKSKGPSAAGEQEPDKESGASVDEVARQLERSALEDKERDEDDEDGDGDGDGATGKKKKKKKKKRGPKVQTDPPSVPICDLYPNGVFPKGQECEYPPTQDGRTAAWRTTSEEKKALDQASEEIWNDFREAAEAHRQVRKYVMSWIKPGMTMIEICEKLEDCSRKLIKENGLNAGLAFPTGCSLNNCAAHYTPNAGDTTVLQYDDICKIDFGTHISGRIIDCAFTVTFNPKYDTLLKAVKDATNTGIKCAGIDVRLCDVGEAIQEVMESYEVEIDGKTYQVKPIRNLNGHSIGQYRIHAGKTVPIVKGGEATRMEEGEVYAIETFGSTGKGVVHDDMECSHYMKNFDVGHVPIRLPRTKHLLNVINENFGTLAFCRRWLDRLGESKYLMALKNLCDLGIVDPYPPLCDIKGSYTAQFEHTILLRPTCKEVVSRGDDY
Method: Compounds are tested for their capacity to inhibit recombinant human MetAP2 activity using the following assay.
Human recombinant MetAP2 expressed in Sf9 cells followed by affinity purification and EDTA treatment to remove endogenous active site cation was dialysed against MnCl2 to produce the manganese enzyme used in the assay. The assay was carried out for 30 minutes at 25° C. in 50 mM HEPES buffer containing 100 mM NaCl, pH 7.5 the presence of 0.75 mM Methionine-Alanine-Serine (MAS) substrate and 50 µg/ml amino acid oxidase using a dilution of purified MetAP2 giving >3-fold signal: noise. Cleavage of the substrate by MetAP2 and oxidation of free methionine by amino acid oxidase was detected and quantified using fluorescence generated by Amplex red (10-acetyl-3,7-dihydroxyphenoxazine) in combination with horseradish peroxidase which detects H2O2 released during the oxidation step. The fluorescent signal was detected using a multiwell fluorimeter. Compounds were diluted in DMSO prior to addition to assay buffer, the final DMSO concentration in the assay being 1%.
IC50 values are calculated using the XLfit software package (version 2.0.5).

NASH mice = test: Non-alcoholic steatohepatitis (STZ + high fat diet) mouse model; assay type: in vivo; conditions: for Mean body weight at the day before sacrifice: 5 to 9 weeks of age, Vehicle 18.8±1.0 g; for Fibrosis area (Sirius red-positive area): Vehicle 1.07±0.18%; for Inflammation area (F4/80-positive area): Vehicle 3.57±0.88%; for Fat deposition area (oil red-positive area): Vehicle 23.57±6.52%; for Liver TG content: Vehicle 67.3±29.0; for Whole blood HbA1c levels: FIG. 9; for NAFLD Activity score (NAS): Vehicle 5.4±0.9
Method: NASH was induced in 48 male mice by a single subcutaneous injection of 200 μg streptozotocin (STZ; Sigma-Aldrich) in the back of mice 2 days after birth, and by feeding with high fat diet (HFD; 57 kcal % fat) after 4 weeks of age. At 5 weeks of age, the NASH mice were randomized into 6 groups of 8 mice based on body weight. Eight male littermates, fed with normal diet (without STZ treatment, were used for the Normal group. Vehicle, Compound A and Telmisartan were administered by the oral route in a volume of 10 mL/kg body weight.
Compound A was administered twice daily at doses of 1, 3 or 10 mg/kg body weight (i.e., 2, 6 or 20 mg/kg/day) and once daily at dose of 30 mg/kg body weight. Telmisartan was administered once daily at a dose of 10 mg/kg body weight.
C57BL/6 mice (15-day pregnant female) were obtained from Charles River Laboratories Japan (Japan). The animals were maintained in a SPF facility under controlled conditions of temperature (23±2° C.), humidity (45±10%), lighting (12-hour artificial light and dark cycles; light from 8:00 to 20:00) and air exchange. A high pressure (20±4 Pa) was maintained in the experimental room to prevent contamination of the facility.
Mice were fasted for 4 hours before blood was collected at the time of sacrifice. HbA1c levels were quantified in whole blood samples by DCA Vantage Analyzer (Siemens Healthcare Diagnostics, USA). For plasma biochemistry, blood was collected in polypropylene tubes with anticoagulant (Novo-Heparin;) and centrifuged at 1,000×g for 15 minutes at 4° C. The supernatant was collected and stored at −80° C. until use. Plasma levels of glucose, ALT, TG and total cholesterol were measured by FUJI DRI-CHEM 7000 (Fujifilm, Japan). Plasma insulin concentration was quantified by the Ultra Sensitive Mouse Insulin ELISA Kit.
Liver total lipid-extracts were obtained by Folch's method (Folch J. et al., J. Biol. Chem. 1957; 226: 497). Liver samples were homogenized in chloroform-methanol (2:1, v/v) and incubated overnight at room temperature. After washing with chloroform-methanol-water (8:4:3, v/v/v), the extracts were evaporated to dryness, and dissolved in isopropanol. Liver TG levels were measured by Triglyceride E-test (Wako Pure Chemical Industries). Extracts were diluted 2-fold in isopropanol when the TG content exceeded the detection limit.
For HE staining, sections were cut from paraffin blocks of liver tissue prefixed in Bouin's solution and stained with Lillie-Mayer's Hematoxylin (Muto Pure Chemicals, Japan) and eosin solution (Wako Pure Chemical Industries). NAFLD Activity score (NAS) was calculated according to the criteria of Kleiner (Kleiner D E et al., Hepatology, 2005; 41:1313). To visualize collagen deposition, Bouin's fixed liver sections were stained using picro-Sirius red solution (Waldeck, Germany). To visualize macro- and microvesicular fat, cryosections were cut from frozen liver tissues, prefixed in 10% neutral buffered formalin, embedded in Tissue-Tek O.C.T. compound (Sakura Finetek Japan, Japan), and stained with Oil Red O (Sigma-Aldrich). For immunohistochemistry, sections were cut from frozen liver tissues embedded in Tissue-Tek O.C.T. compound and fixed in acetone. Endogenous peroxidase activity was blocked using 0.03% H2O2 for 5 minutes, followed by incubation with Block Ace (Dainippon Sumitomo Pharma, Japan) for 10 minutes. The sections were incubated with a 200-fold dilution of anti-F4/80 antibody (BMA Biomedicals, Switzerland) over night at 4° C. After incubation with secondary antibody (HRP-Goat anti-rat antibody, Invitrogen, USA), enzyme-substrate reactions were performed using 3, 3′-diaminobenzidine/H2O2 solution (Nichirei, Japan). […]

CCN(CC)C/C=C\c1cc(F)ccc1S(=O)(=O)Nc1ccc2c(c1C(=O)O)OC[C@@H]1C[C@H]21 (single isomer, unassigned) [Example 12]
Expression of genes implicated in pathogenesis of fatty liver and fibrosis (liver mRNA microarray) ([1]; 3 mg/kg/bid×10 days, DIO obese mice, FIG. 6): favorably regulated
Tissue biomarkers in peri-renal fat, mesenteric fat and the liver ([1]; DIO C57BL6 mice, varying doses, FIG. 1): primarily targets the liver
Liver weight ([1]; FIG. 5): reduction
Mesenteric adipose tissue weight ([1]; FIG. 5): reduction
Change in bodyweight after 10 days ([1]; obese mice, increasing doses over 10 days, vs vehicle, FIG. 2): marked decrease in body weight
Blood cholesterol ([1]; obese mice, vs vehicle, FIG. 3): marked lowering
Blood glucose ([1]; obese mice, vs vehicle, FIG. 3): marked lowering
Plasma insulin ([1]; once or twice a day administration vs vehicle, FIG. 4): Decrease
fraction unbound [2]: > 0.3
solubility (Solubility): ~100 µg/mL (≈ 211 µM)
IC50 (recombinant human MetAP2): 25 nM
HE-stained liver sections vs Vehicle group (NASH mice; 1 mg/kg (BID)): No obvious differences
Mean body weight at the day before sacrifice (NASH mice; 1 mg/kg (BID) oral): 19.2 ± 1.4 g
Fibrosis area (Sirius red-positive area) (NASH mice; 1 mg/kg (BID)): 1.12±0.46%
Inflammation area (F4/80-positive area) (NASH mice; 1 mg/kg (BID)): 3.67±0.91%
Fat deposition area (oil red-positive area) (NASH mice; 1 mg/kg (BID)): 18.47±5.22%
Liver TG content (NASH mice; 1 mg/kg (BID)): 71.7±30.3 mg/g liver
Hepatocellular ballooning and inflammatory cell infiltration vs Vehicle group (NASH mice; 3 mg/kg (BID)): decrease
Mean body weight at the day before sacrifice (NASH mice; 3 mg/kg (BID) oral): 18.7 ± 1.4 g
Whole blood HbA1c levels (NASH mice; 3 mg/kg (BID)): decreased
Fibrosis area (Sirius red-positive area) (NASH mice; 3 mg/kg (BID)): 0.89±0.32%
Inflammation area (F4/80-positive area) (NASH mice; 3 mg/kg (BID)): 3.47±0.65%
NAFLD Activity score (NAS) (NASH mice; 3 mg/kg (BID)): 3.6±1.6
Fat deposition area (oil red-positive area) (NASH mice; 3 mg/kg (BID)): 19.53±4.64%
Liver TG content (NASH mice; 3 mg/kg (BID)): 52.9±18.5 mg/g liver
Hepatocellular ballooning and inflammatory cell infiltration vs Vehicle group (NASH mice; 10 mg/kg (BID)): decrease
Mean body weight at the day before sacrifice (NASH mice; 10 mg/kg (BID) oral): 18.7 ± 1.0 g
Whole blood HbA1c levels (NASH mice; 10 mg/kg (BID)): decreased
Fibrosis area (Sirius red-positive area) (NASH mice; 10 mg/kg (BID)): 1.07±0.31%
Inflammation area (F4/80-positive area) (NASH mice; 10 mg/kg (BID)): 3.82±0.57%
NAFLD Activity score (NAS) (NASH mice; 10 mg/kg (BID)): 3.4±1.5
Fat deposition area (oil red-positive area) (NASH mice; 10 mg/kg (BID)): 23.31±9.18%
Liver TG content (NASH mice; 10 mg/kg (BID)): 56.7±25.8 mg/g liver
HE-stained liver sections vs Vehicle group (NASH mice; 30 mg/kg (QD)): No obvious differences
Mean body weight at the day before sacrifice (NASH mice; 30 mg/kg (QD) oral): 17.9 ± 0.9 g
Fibrosis area (Sirius red-positive area) (NASH mice; 30 mg/kg (QD)): 0.99±0.43%
Inflammation area (F4/80-positive area) (NASH mice; 30 mg/kg (QD)): 3.90±0.78%
Fat deposition area (oil red-positive area) (NASH mice; 30 mg/kg (QD)): 22.30±9.59%
Liver TG content (NASH mice; 30 mg/kg (QD)): 62.4±18.1 mg/g liver
Plasma total cholesterol levels (NASH mice; BID dosing, dose dependent, FIG. 10): decreased
NAS (NASH mice; QD dosing (30 mg/kg)): did not show evident improvement
Plasma total cholesterol levels (NASH mice; QD dosing (30 mg/kg)): significantly decreased
Whole blood HbA1c (NASH mice; QD dosing (30 mg/kg)): did not show evident improvement
